Experimental data as given in patent US7556930B2, “CD39L3 and its role in diabetes” (Metabolex Inc., priority 2005, dated 2009).
Where two headings read alike, the source gives them in different places.

Assays:
full length human CD39L3 [1] = molecular target: T1, full length human CD39L3 (Homo sapiens, UniProt O75355); assay: Piper Phosphate Assay of CD39L3 nucleotide hydrolysis activity in transiently transfected HEK293 cells; assay type: biochemical; settings: HEK293 cells transiently transfected with full length human CD39L3, read-out: IC50, inhibition of CD39L3
T1 construct: Cells were transiently transfected with the full length human CD39L3 clone; expressed in transfected cells; host or cells: HEK293 cells, transiently transfected; frozen and thawed intact cells
T1 sequence (O75355 1-529 A496V): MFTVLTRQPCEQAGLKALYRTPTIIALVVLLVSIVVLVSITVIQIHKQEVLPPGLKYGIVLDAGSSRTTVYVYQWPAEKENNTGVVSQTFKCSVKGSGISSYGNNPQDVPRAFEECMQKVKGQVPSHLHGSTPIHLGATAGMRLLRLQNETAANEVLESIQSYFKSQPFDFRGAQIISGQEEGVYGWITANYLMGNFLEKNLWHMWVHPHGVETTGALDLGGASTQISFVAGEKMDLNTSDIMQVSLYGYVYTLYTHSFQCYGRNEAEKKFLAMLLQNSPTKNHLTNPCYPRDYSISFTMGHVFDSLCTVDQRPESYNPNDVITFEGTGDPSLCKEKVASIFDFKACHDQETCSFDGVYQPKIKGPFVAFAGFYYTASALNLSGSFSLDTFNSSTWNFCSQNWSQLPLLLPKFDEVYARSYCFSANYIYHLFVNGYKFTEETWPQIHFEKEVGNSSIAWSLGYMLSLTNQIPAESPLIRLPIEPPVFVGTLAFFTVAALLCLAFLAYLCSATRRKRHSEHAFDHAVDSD
Procedure: (§1) FIG. 4 illustrates the Km of ATP determined for full length human CD39L3 in transiently transfected HEK293 cells. The Km of ATP values determined under two concentrations of each cation source: CaCl2 and MgCl2. […] Activity assays were performed with the Piper Phosphate Assay (Molecular Probes).
(§2) FIG. 5 illustrates the Km of ADP determined for full length human CD39L3 in transiently transfected HEK293 cells. The Km of ADP values determined under two concentrations of each cation source: CaCl2 and MgCl2. […] Activity assays were performed with the Piper Phosphate Assay (Invitrogen).
(§3) FIG. 6 illustrates the inhibition of CD39L3 examined with the general ectoATPase inhibitor, ARL 67156. HEK293 cells were transiently transfected with full length human CD39L3. […] Activity assays were performed with the Piper Phosphate Assay (Molecular Probes).
(§4) As the activity of CD39L3 involves the hydrolysis of nucleoside triphosphates and diphosphates, Molecular Probes' Piper Phosphate Assay Kit™, which is an assay that detects free phosphate, a product of the hydrolysis, was used.
(§5) Cells were transiently transfected with the full length human CD39L3 clone were measured for nucleotide hydrolysis activity in suspension or adhered to the plate, within an isotonic buffer including the required cation cofactor, calcium or magnesium. Batches of transiently transfected CD39L3 cells were produced and frozen until use.
(§6) Using cells that were frozen and thawed, the Piper Phosphate Assay was used to determine the Km of ATP and ADP for the full length human CD39L3 clone (FIGS. 4 and 5). In addition, to validate the detection of an inhibitor with this assay format, a general ectoATPase inhibitor, ARL 67156, was examined.

full length human CD39L3 [2] = molecular target: T2, full length human CD39L3 (Homo sapiens, UniProt O75355, A496V); assay: as above; assay type: biochemical
T2 construct: Cells were transiently transfected with the full length human CD39L3 clone; expressed in transfected cells; host or cells: HEK293 cells, transiently transfected; frozen and thawed intact cells
T2 sequence (O75355 1-529 A496V): T1 sequence (O75355 1-529 A496V)
Procedure: as §1, §2, §3, §4, §5, §6

In the case of `CCN(CC)c1ncnc2c1ncn2[C@@H]1O[C@H](COP(=O)(O)OP(=O)(O)C(Br)(Br)P(=O)(O)O)[C@@H](O)[C@H]1O` [ARL 67156], the IC50 (full length human CD39L3 [1]; 40 uM ADP+5 mM CaCl2) is reported as 59 µM, the IC50 (full length human CD39L3 [1]; 40 uM ADP+5 mM MgCl2) is reported as 57 µM and the IC50 (full length human CD39L3 [1]; 65 μM ATP+5 mM CaCl2) is reported as 49 µM. The IC50 (full length human CD39L3 [1]; 65 uM ATP+5 mM MgCl2) was 59 µM.

`Nc1ncnc2c1ncn2[C@@H]1O[C@H](COP(=O)(O)OP(=O)(O)O)[C@@H](O)[C@H]1O` [ADP] showed a Km (full length human CD39L3 [2]; 1 mM CaCl2, read-out: Km of ADP) of 42 µM, a Km (full length human CD39L3 [2]; 1 mM MgCl2, read-out: Km of ADP) of 35 µM and a Km (full length human CD39L3 [2]; 5 mM CaCl2, read-out: Km of ADP) of 39 µM. For the same compound, the Km (full length human CD39L3 [2]; 5 mM MgCl2, read-out: Km of ADP) was 44 µM.

`Nc1ncnc2c1ncn2[C@@H]1O[C@H](COP(=O)(O)OP(=O)(O)OP(=O)(O)O)[C@@H](O)[C@H]1O` [ATP] showed a Km (full length human CD39L3 [2]; 1 mM CaCl2, read-out: Km of ATP) of 105 µM, a Km (full length human CD39L3 [2]; 1 mM MgCl2, read-out: Km of ATP) of 60 µM and a Km (full length human CD39L3 [2]; 5 mM CaCl2, read-out: Km of ATP) of 85 µM. It also gave a Km (full length human CD39L3 [2]; 5 mM MgCl2, read-out: Km of ATP) of 52 µM.
